Test results: PubChem BioAssay (NCI)
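Compound exposure: 48 hours, 5 concentrations, 96-well plates. GI50 is the concentration that inhibits growth by half. TGI: total growth inhibition.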 Active and inactive are the calls of the source. No stated cut-off is given here; in the data, active means GI50 below about 0.43 µM; inactive means the rest.

Columns and labels:
Experiment in all cases: inhibition of tumour cell growth, NCI panel, 48 h
[1] = test system: ACHN renal
[2] = test system: CAKI-1 renal
[3] = test system: HT29 colon
[4] = test system: SR leukemia
[5] = test system: CCRF-CEM leukemia
[6] = test system: HOP-92 NSCLC
[7] = test system: MOLT-4 leukemia
[8] = test system: K-562 leukemia
[9] = test system: OVCAR-5 ovarian
[10] = test system: RXF 393 renal
[11] = test system: A498 renal
[12] = test system: HCT-15 colon
[13] = test system: HOP-62 NSCLC
[14] = test system: NCI-H23 lung
[15] = test system: DU-145 prostate
[16] = test system: EKVX NSCLC
[17] = test system: SN12C renal
[18] = test system: MDA-MB-435
[19] = test system: SF-295 CNS
[20] = test system: NCI-H226 lung
[21] = test system: SNB-75 CNS
[22] = test system: SNB-19 CNS
[23] = test system: UO-31 renal
[24] = test system: HS 578T breast
[25] = test system: OVCAR-8 ovarian
[26] = test system: T-47D breast
[27] = test system: 786-0 renal
[28] = test system: KM12 colon
[29] = test system: UACC-257 melanoma
[30] = test system: UACC-62 melanoma
[31] = test system: IGROV1 ovarian
[32] = test system: SK-OV-3 ovarian
[33] = test system: COLO 205 colon
[34] = test system: U251 CNS
[35] = test system: M14 melanoma
[36] = test system: SF-268 CNS
[37] = test system: A549 NSCLC
[38] = test system: OVCAR-4 ovarian
[39] = test system: SK-MEL-5 melanoma
[40] = test system: SF-539 CNS
[41] = test system: NCI/ADR-RES ovarian
[42] = test system: RPMI-8226 leukemia
[43] = test system: MDA-MB-231 breast
[44] = test system: SW-620 colon
[45] = test system: SK-MEL-28 melanoma
[46] = test system: MALME-3M melanoma
[47] = test system: TK-10 renal
[48] = test system: HCC-2998 colon
[49] = test system: HL-60(TB) leukemia
[50] = test system: HCT-116 colon
[51] = test system: MCF7 breast
[52] = test system: SK-MEL-2 melanoma
[53] = test system: NCI-H460 lung
[54] = test system: LOX IMVI melanoma
[55] = test system: PC-3 prostate
[56] = test system: BT-549 breast
[57] = test system: NCI-H522 lung
[58] = test system: OVCAR-3 ovarian

COc1ccc2[nH]c3c(c2c1)CCN[C@]31CS[C@@H]2c3c(OC(C)=O)c(C)c4c(c3[C@H](COC1=O)N1[C@@H]2[C@H]2c3c(cc(C)c(OC)c3O)C[C@@H]([C@@H]1O)N2C)OCO4
> 100 µM: TGI [3] | TGI [4] | TGI [5] | TGI [7] | TGI [8]
1.12 µM: TGI [1]
1.68 µM: TGI [2]
0.0132 µM: TGI [6]

O=C(CCC(=O)CC(O)(C(F)(F)F)C(F)(F)F)CC(O)(C(F)(F)F)C(F)(F)F
69.5 µM: TGI [20]
59.3 µM: TGI [23]
> 100 µM: TGI [9] | TGI [10] | TGI [1] | TGI [12] | TGI [13] | TGI [15] | TGI [16] | TGI [17] | TGI [18] | TGI [19] | TGI [3] | TGI [21] | TGI [24] | TGI [4] | TGI [25] | TGI [26] | TGI [5] | TGI [27] | TGI [28] | TGI [29] | TGI [30] | TGI [31] | TGI [32] | TGI [34] | TGI [35] | TGI [36] | TGI [37] | TGI [38] | TGI [39] | TGI [40] | TGI [41] | TGI [43] | TGI [44] | TGI [45] | TGI [46] | TGI [47] | TGI [48] | TGI [7] | TGI [50] | TGI [8] | TGI [51]
91.2 µM: TGI [49]
49.4 µM: TGI [6]
67.4 µM: TGI [11]
97.8 µM: TGI [42]
72.4 µM: TGI [22]
96.3 µM: TGI [33]
95.8 µM: TGI [14]

Cc1cc(S(=O)(=O)/N=C/N(C)C)c(SC(=O)c2ccc(Cl)cc2)cc1Cl
inactive: GI50 [9] 48.6 µM | GI50 [10] 11.5 µM | GI50 [1] 22.7 µM | GI50 [52] 45.8 µM | GI50 [12] 19.2 µM | GI50 [13] 41.8 µM | GI50 [14] 23.2 µM | GI50 [53] 56.5 µM | GI50 [15] 19.1 µM | GI50 [54] 19.1 µM | GI50 [16] 17.4 µM | GI50 [17] 26.8 µM | GI50 [18] 25.1 µM | GI50 [2] 36.6 µM | GI50 [19] 50.9 µM | GI50 [20] 27.8 µM | GI50 [22] 53.8 µM | GI50 [23] > 100 µM | GI50 [24] 20.7 µM | GI50 [4] 44.6 µM | GI50 [25] 40.9 µM | GI50 [5] 32.4 µM | GI50 [27] 23.8 µM | GI50 [6] 28.9 µM | GI50 [28] 39.1 µM | GI50 [29] > 100 µM | GI50 [30] 29.9 µM | GI50 [31] 38.5 µM | GI50 [55] 27.6 µM | GI50 [32] > 100 µM | GI50 [33] 55.9 µM | GI50 [34] 27 µM | GI50 [35] 89.8 µM | GI50 [36] 50.8 µM | GI50 [56] 18.7 µM | GI50 [37] 34.1 µM | GI50 [38] 60.1 µM | GI50 [39] 10.8 µM | GI50 [40] 26.7 µM | GI50 [41] 28.4 µM | GI50 [57] 47.9 µM | GI50 [42] 25.4 µM | GI50 [43] 25.8 µM | GI50 [44] 27.6 µM | GI50 [45] 48.9 µM | GI50 [58] 33.3 µM | GI50 [47] 28.2 µM | GI50 [48] 17.9 µM | GI50 [49] 42.5 µM | GI50 [7] 61 µM | GI50 [50] 24.1 µM | GI50 [8] 46.5 µM | GI50 [51] 37.1 µM
67.2 µM: TGI [27]
52.1 µM: TGI [40]
69.9 µM: TGI [43]
38.2 µM: TGI [48]
51.1 µM: TGI [16]
90.8 µM: TGI [55]
47.1 µM: TGI [1]
71.1 µM: TGI [34]
85.2 µM: TGI [37]
59.3 µM: TGI [50]
56.2 µM: TGI [14]
> 100 µM: TGI [9] | TGI [52] | TGI [13] | TGI [53] | TGI [15] | TGI [19] | TGI [22] | TGI [23] | TGI [4] | TGI [25] | TGI [5] | TGI [6] | TGI [28] | TGI [29] | TGI [30] | TGI [31] | TGI [32] | TGI [33] | TGI [35] | TGI [36] | TGI [38] | TGI [57] | TGI [45] | TGI [49] | TGI [7] | TGI [8] | TGI [51]
72.3 µM: TGI [44]
35.7 µM: TGI [10]
80.6 µM: TGI [42]
65 µM: TGI [24]
37 µM: TGI [12]
87.2 µM: TGI [20]
50.4 µM: TGI [56]
91.1 µM: TGI [58]
72.2 µM: TGI [41]
80.7 µM: TGI [47]
79.8 µM: TGI [17]
35.2 µM: TGI [54]
92.3 µM: TGI [2]
70.4 µM: TGI [18]
36.5 µM: TGI [39]

O=c1c2ccccc2c(=O)c2c1c1[nH]c3ccccc3c1c1c(=O)c3ccccc3c(=O)c21
inactive: outcome [4] | outcome [42] | outcome [7]
